What was measured:
mNAGS (mouse NAGS) = target: T1, mNAGS (mouse NAGS) (Mus musculus, UniProt Q8R4H7); assay: NAGS specific activity; assay type: biochemical
T1 construct: appears to be tetramer
T1 sequence (Q8R4H7 51-527): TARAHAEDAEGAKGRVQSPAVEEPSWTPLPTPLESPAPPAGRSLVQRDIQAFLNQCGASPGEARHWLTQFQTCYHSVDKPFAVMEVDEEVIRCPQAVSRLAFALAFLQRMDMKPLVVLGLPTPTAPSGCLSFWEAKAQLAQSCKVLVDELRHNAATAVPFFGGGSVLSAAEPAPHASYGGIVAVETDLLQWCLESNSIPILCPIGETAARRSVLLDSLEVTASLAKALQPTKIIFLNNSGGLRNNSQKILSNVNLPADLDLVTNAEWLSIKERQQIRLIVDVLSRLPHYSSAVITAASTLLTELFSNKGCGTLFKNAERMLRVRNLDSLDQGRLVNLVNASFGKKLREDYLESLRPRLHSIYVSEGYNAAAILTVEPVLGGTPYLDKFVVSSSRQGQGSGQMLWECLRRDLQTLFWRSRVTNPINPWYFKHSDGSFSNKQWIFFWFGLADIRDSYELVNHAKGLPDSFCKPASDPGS

hNAGS (human NAGS) = target: T2, hNAGS (human NAGS) (Homo sapiens, UniProt Q8N159); assay: NAGS specific activity; assay type: biochemical
T2 construct: appears to be tetramer
T2 sequence (Q8N159 51-534): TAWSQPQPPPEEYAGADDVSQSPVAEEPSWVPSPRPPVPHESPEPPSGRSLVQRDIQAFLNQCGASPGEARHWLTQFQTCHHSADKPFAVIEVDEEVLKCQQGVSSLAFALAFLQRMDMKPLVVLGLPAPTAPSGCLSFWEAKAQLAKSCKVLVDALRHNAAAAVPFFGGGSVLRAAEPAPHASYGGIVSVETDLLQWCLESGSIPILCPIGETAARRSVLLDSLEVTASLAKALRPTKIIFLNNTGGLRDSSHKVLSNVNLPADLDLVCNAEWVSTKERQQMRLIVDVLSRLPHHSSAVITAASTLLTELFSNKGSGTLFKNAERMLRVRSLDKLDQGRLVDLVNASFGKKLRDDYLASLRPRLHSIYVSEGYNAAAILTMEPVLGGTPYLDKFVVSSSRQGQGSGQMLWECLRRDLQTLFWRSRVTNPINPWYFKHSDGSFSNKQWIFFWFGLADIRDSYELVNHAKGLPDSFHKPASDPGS

SMILES | NAGS specific activity (mNAGS (mouse NAGS); co-substrate glutamate) | NAGS specific activity (hNAGS (human NAGS); co-substrate glutamate) | NAGS specific activity (mNAGS (mouse NAGS); co-substrate acetyl coenzyme A) | NAGS specific activity (hNAGS (human NAGS); co-substrate acetyl coenzyme A)
CC(=O)SCCNC(=O)CCNC(=O)[C@H](O)C(C)(C)COP(=O)(O)OP(=O)(O)OC[C@H]1O[C@@H](n2cnc3c(N)ncnc32)[C@H](O)[C@@H]1OP(=O)(O)O [acetyl coenzyme A] | catalyzes formation of N-acetylglutamate (NAG) from glutamate and acetyl coenzyme A | catalyzes formation of N-acetylglutamate (NAG) from glutamate and acetyl coenzyme A |  | 
N[C@@H](CCC(=O)O)C(=O)O [glutamate] |  |  | catalyzes formation of N-acetylglutamate (NAG) from glutamate and acetyl coenzyme A | catalyzes formation of N-acetylglutamate (NAG) from glutamate and acetyl coenzyme A

Reference: publication PMC7878489, “Gene delivery corrects N-acetylglutamate synthase deficiency and enables insights in the physiological impact of L-arginine activation of N-acetylglutamate synthase” (Scientific Reports, 2021)
